Measured values as given in patent publication US20030229451A1, “Methods and systems for analyzing complex biological systems” (priority 2001, published 2003).

Tested on: Saccharomyces cerevisiae wild type strain BY4743
Experiment: AF1 metabolite analysis (GC-MS, LC-MS) of yeast cells treated with antifungal drugs
Assay type: cell-based
Settings: for # Compounds perturbed: 2x MIC, two hours

OC(Cn1cncn1)(Cn1cncn1)c1ccc(F)cc1F [Fluconazole]
# Compounds perturbed (P < 0.05): 2 | # Compounds perturbed (P < 0.1): 6 | Fold Change, alanine (platform GC): 0.3084 | Fold Change, asparagine (platform GC): 0.3999 | Fold Change, aspartic acid (platform GC): 0.4337 | Fold Change, campesterol (platform GC): 0 | Fold Change, desmosterol (platform GC): 0 | Fold Change, disaccaride1 (platform GC): 0.3883 | Fold Change, disaccaride2 (platform GC): 0.1517 | Fold Change, disaccaride3 (platform GC): 0.5803 | Fold Change, ergosterol (platform GC): 0.948 | Fold Change, fucosterol (platform GC): 6.665 | Fold Change, glutamine (platform GC): 0.5242 | Fold Change, glycanopyrose (platform GC): 1.202 | Fold Change, glycerol (platform GC): 0.2187 | Fold Change, glycine (platform GC): −0.1037 | Fold Change, hexadecanoic acid (platform GC): 0.1343 | Fold Change, iso citric acid (platform GC): 0.3923 | Fold Change, isoleucine (platform GC): 0.391 | Fold Change, lanosterol (platform GC): 8.462 | Fold Change, leucine (platform GC): 0.3387 | Fold Change, lysine (platform GC): 0.3412 | Fold Change, malic acid (platform GC): 0.3975 | Fold Change, mevalonic acid lactone (platform GC): 0.2333 | Fold Change, octadecanoic acid (platform GC): 0.082 | Fold Change, oleic acid (platform GC): −0.3073 | Fold Change, ornithine2 (platform GC): 0.4473 | Fold Change, ornithine3 (platform GC): 0.2647 | Fold Change, palmiteliadic acid (platform GC): −0.08867 | Fold Change, phenylalanine (platform GC): 0.2774 | Fold Change, phosphate (platform GC): −0.508 | Fold Change, pyrimidine (platform GC): 0.2457 | Fold Change, 2-ketobutyric acid (platform nLC): −0.9992 | Fold Change, 2-ketoglutaric (platform nLC): −0.9995 | Fold Change, 3-indolylacetonitri (platform nLC): −0.9998 | Fold Change, 4-methylcatechol (platform nLC): 0 | Fold Change, 4aminobutyrate/dimg (platform nLC): 0.1384 | Fold Change, 5hydroxyLtryptophan (platform nLC): 0 | Fold Change, 6-benzylaminopurine (platform nLC): 0 | Fold Change, DLaminoadipic acid (platform nLC): 0.443 | Fold Change, NacetylDglucosamine (platform nLC): 0 | Fold Change, NacetylLglutamate (platform nLC): 0.1369 | Fold Change, NacetylLornithine (platform nLC): 0 | Fold Change, abscisic acid (platform nLC): 0 | Fold Change, aconitic acid (platform nLC): 0.6483 | Fold Change, adenine (platform nLC): 0 | Fold Change, adenosine (platform nLC): 0 | Fold Change, alanine (platform nLC): 0.399 | Fold Change, allantoic acid (platform nLC): 0.2392 | Fold Change, allantoin (platform nLC): 0.3942 | Fold Change, anthranilic acid (platform nLC): 0 | Fold Change, arginine (platform nLC): 0.6484 | Fold Change, argininosuccinate (platform nLC): 0 | Fold Change, asparagine (platform nLC): 0.3545 | Fold Change, aspartic (platform nLC): 0.4993 | Fold Change, benzoic acid (platform nLC): 0. | Fold Change, biotin (platform nLC): 0.3455 | Fold Change, caffeic acid (platform nLC): −0.4711 | Fold Change, catechol (platform nLC): 0 | Fold Change, cinnamic acid (platform nLC): 0 | Fold Change, citricanoic/itaconi. (platform nLC): 0 | Fold Change, citrulline (platform nLC): 0 | Fold Change, coumaric acid (platform nLC): 0 | Fold Change, cytidine (platform nLC): −0.7969 | Fold Change, cytosine (platform nLC): 0 | Fold Change, decanoic acid (platform nLC): 0.1846 | Fold Change, diaminopimelic acid (platform nLC): 0 | Fold Change, dihydrofolic acid (platform nLC): 0 | Fold Change, estrone (platform nLC): 0 | Fold Change, farnesol (platform nLC): 0 | Fold Change, folic acid (platform nLC): 0 | Fold Change, fumaric/3m2oxobutan (platform nLC): 0.6009 | Fold Change, gallic acid (platform nLC): 0.5071 | Fold Change, gibberellic (platform nLC): 0 | Fold Change, glucosamine6PO4 (platform nLC): −0.9951 | Fold Change, glutamic/acetylseri (platform nLC): 0.3842 | Fold Change, glutamine/lysine (platform nLC): 0.3309 | Fold Change, guanine (platform nLC): 0 | Fold Change, guanosine (platform nLC): −0.993 | Fold Change, histidine (platform nLC): 0 | Fold Change, homogentisic/uric (platform nLC): 0 | Fold Change, hydrocortisone (platform nLC): 0 | Fold Change, hypoxanthine (platform nLC): 0.7757 | Fold Change, indole3pyruvic acid (platform nLC): 0 | Fold Change, inostol/glucos/sorb (platform nLC): −0.4744 | Fold Change, isocitric/citric/qu (platform nLC): 1.457 | Fold Change, jasmonic acid (platform nLC): 0 | Fold Change, kinetin (platform nLC): 0 | Fold Change, lactic acid (platform nLC): −0.0439 | Fold Change, lauric acid (platform nLC): 0.3906 | Fold Change, leucine/isoleucine/ (platform nLC): 0.3306 | Fold Change, luteolin (platform nLC): 0 | Fold Change, malic acid (platform nLC): 0.4366 | Fold Change, malonic acid (platform nLC): 0 | Fold Change, menthol* (platform nLC): 0.04758 | Fold Change, methionine (platform nLC): 0 | Fold Change, nicotinic acid (platform nLC): 2.443 | Fold Change, nopaline (platform nLC): 0.3432 | Fold Change, oleic acid (platform nLC): −0.01684 | Fold Change, ornithine (platform nLC): 0.3508 | Fold Change, orotic acid (platform nLC): 0 | Fold Change, palmitic acid (platform nLC): −0.0233 | Fold Change, phenylalanine (platform nLC): 0.1527 | Fold Change, phenylpyruvic acid (platform nLC): 0 | Fold Change, phosphoenolpyruvate (platform nLC): 0 | Fold Change, pinitol (platform nLC): 0 | Fold Change, pipecolic acid (platform nLC): 0.2901 | Fold Change, porphobilinogen (platform nLC): 0 | Fold Change, proline (platform nLC): 0.4164 | Fold Change, pyridoxine (platform nLC): −0.04201 | Fold Change, 4-aminobenzoic acid (platform pLC): 0 | Fold Change, 4-methylcatechol (platform pLC): 0 | Fold Change, 4ambutyrate/dimglyc (platform pLC): −0.4383 | Fold Change, 5hydroxyLtryptophan (platform pLC): 0 | Fold Change, 6benzylaminopurine (platform pLC): 0 | Fold Change, DL-aminoadipic acid (platform pLC): 0.1155 | Fold Change, NacetylDglucosamine (platform pLC): 0 | Fold Change, NacetylLglutamate (platform pLC): 0 | Fold Change, NacetylLornithine (platform pLC): 0.1584 | Fold Change, abscisic acid (platform pLC): 0 | Fold Change, adenine (platform pLC): −0.09439 | Fold Change, adenosine (platform pLC): 0 | Fold Change, alanine/sarcosine (platform pLC): 0.1269 | Fold Change, allantoic acid (platform pLC): 0 | Fold Change, anthranilic acid (platform pLC): 0 | Fold Change, arginine (platform pLC): 0.1179 | Fold Change, argininosuccinate (platform pLC): 0 | Fold Change, asparagine (platform pLC): 0.3192 | Fold Change, aspartic acid (platform pLC): 0.214 | Fold Change, biotin (platform pLC): 0 | Fold Change, caffeine (platform pLC): 0 | Fold Change, citric acid TME (platform pLC): 0 | Fold Change, citrulline (platform pLC): 0.08252 | Fold Change, cytidine (platform pLC): 0 | Fold Change, cytosine (platform pLC): 0 | Fold Change, diaminopimelic acid (platform pLC): 0 | Fold Change, dihydrofolic acid (platform pLC): 0 | Fold Change, dipicolinic acid (platform pLC): 0 | Fold Change, folic acid (platform pLC): 0 | Fold Change, glucosamine (platform pLC): 0 | Fold Change, glucosamine6PO4 (platform pLC): 0 | Fold Change, glutamate (platform pLC): −0.06179 | Fold Change, glutamine/lysine (platform pLC): 0.2242 | Fold Change, glutathione (platform pLC): −0.05832 | Fold Change, guanosine (platform pLC): −0.9981 | Fold Change, histidine (platform pLC): 0 | Fold Change, hydrocortisone (platform pLC): 0 | Fold Change, hypoxanthine (platform pLC): 0.1298 | Fold Change, itaconic acid dimes (platform pLC): 0 | Fold Change, kinetin (platform pLC): 0 | Fold Change, leucine/isoleucine/ (platform pLC): 0.1638 | Fold Change, luteolin (platform pLC): 0 | Fold Change, mannitol (platform pLC): 0.152 | Fold Change, methionine (platform pLC): −0.2906 | Fold Change, mevalonic lactone (platform pLC): −0.5175 | Fold Change, niacinamide (platform pLC): 0 | Fold Change, nicotinic acid (platform pLC): −0.7982 | Fold Change, nopaline (platform pLC): 0 | Fold Change, ornithine (platform pLC): 0.4775 | Fold Change, phenylalanine (platform pLC): −0.1809 | Fold Change, phosphoenolpyruvate (platform pLC): 0 | Fold Change, pipecolic acid (platform pLC): 0.2583 | Fold Change, progesterone (platform pLC): 0 | Fold Change, proline (platform pLC): 0.2075 | Fold Change, pyridoxine (platform pLC): −0.3831
